The record followed here is US20220105093A1, “PHARMACEUTICAL COMPOSITIONS AND COMBINATIONS COMPRISING INHIBITORS OF THE ANDROGEN RECEPTOR AND USES THEREOF” (ESSA Pharma, Inc., priority 2020, published 2022).

The nature of series [1]: In vivo pharmacokinetics in plasma after oral gavage. To be noted: mouse, male CD-1 mice. How it is done: The purpose of this study is to determine the pharmacokinetics of the tested compounds in plasma, following oral gavage administration (PO) to male CD-1 mice.
Animal Husbandry: Animals were group housed during acclimation and the study. The animal room environment were controlled (target conditions: temperature 18 to 26° C., relative humidity 30 to 70%, 12 hours artificial light and 12 hours dark). Temperature and relative humidity were monitored daily. Animals were fasted at least 12 hours prior to the administration. All animals had access to Certified Rodent Diet ad libitum 4 hours post dosing.
Dose Formulation: prepared 85-100 μL of a stock solution of representative compounds of the disclosure in DMSO at 50 mM; 1.5% v/v of Tween 80 were added and mixed gently; 95.5% v/v saline was added gently to the organic phase. The solution was mixed slowly by reverse pipetting to get a clear solution.
Dose Administration: the dose formulations were administered via oral gavage per facility SOPs. The dose volume were determined by the animals' body weight collected on the morning of dosing day
Sample Collection: blood collection (about 0.05 mL per time point) was performed from saphenous vein of each animal into polypropylene tubes at each timepoints (0, 0.25, 0.5, 1, 2, 4, 8, 12, and 24 hr). All blood samples were transferred into pre-chilled tubes containing 2 μL of K2-EDTA (0.5M) and placed on wet ice until centrifugation. Each collected blood sample was in the wet-ice before centrifugation. Each collected blood was under centrifugation for 15 minutes at 4° C. and 3000 g for plasma collection. Plasma samples were stored in polypropylene tubes, quickly frozen over dry ice and kept at −70±10° C. until LC/MS/MS analysis.
Bioanalytical analysis: A LC-MS/MS method for the quantitative determination of tested compound in biological matrix were developed under non-GLP compliance. A calibration curve with at least 7 non-zero calibration standards were applied for the method including LLOQ.
Plasma concentration versus time data were analyzed by non-compartmental approaches using the Phoenix WinNonlin 6.3 software program. Cl, Vdss, C0, Cmax, Tmax, T½, AUC(0-t), AUC(0-inf), MRT(0-t), MRT(0-inf), % F (oral availability) and graphs of plasma concentration versus time profile were reported.

Series [2] deals with androgen responsive genes in VCaP cells. The series is described as follows: mRNA expression of androgen responsive genes in VCaP cells (RNAseq). In kind it is cell-based. How it is done:
Relative mRNA expression in VCaP was measured to assess response of Compound A, enzalutamide (Enza), apalutamide (Apa), or darolutamide (Daro) alone or Compound A in combination with Enza, Apa, or Daro, in androgen responsive genes.

Series [3] deals with androgen responsive genes in LNCaP cells. Description: mRNA expression of androgen responsive genes in LNCaP cells (NanoString AR/Prostate Cancer gene panel).
Setting [4] is: Compound A in plasma, single PO dose 60.00 mg/kg, single agent or with enzalutamide.
The mark [5] stands for this setting: enzalutamide in plasma, single PO dose 15.0 mg/kg, single agent or with Compound A.

With `CC(C)(c1ccc(OCc2ccnc(NS(C)(=O)=O)n2)cc1)c1cc(Cl)c(OCCCl)c(C#N)c1` [Compound A, N-(4-((4-(2-(3-chloro-4-(2-chloroethoxy)-5-cyanophenyl)propan-2-yl)phenoxy)methyl)pyrimidin-2-yl)methanesulfonamide], in series [1] (setting [4]), the AUC(0-t) is 483 µg·h/mL, the Cmax stood at 41700 ng/mL and the time to peak (Tmax) is 4 h. Besides, the half-life in series [1] (Compound A in plasma, single PO dose 60.00 mg/kg, single agent or with enzalutamide, read-out: T½ (converted)) is 5.4 h. The “inhibition of canonical AR dependent genes” value in series [2] (Compound A at 10 μM in combination with the 'lutamides (FIGS. 11A, 11B)) is recorded as “superior inhibition of responsive genes”. Also, the “synergy on androgen responsive gene expression” value in series [2] (Compound A at 10 μM with Enza, Apa or Daro, R1881 stimulation (FIG. 10)) is “can synergize with Enza, Apa, and Daro”. In addition, in series [3] (LNCaP cells (FIG. 6A)), the “Relative mRNA expression of androgen response genes FKBP5, TMPRSS2, KLK2, KLK3, and NKX3.1” value was “dose-dependent response”. Moreover, in series [3] (LNCaP, 7.5 μM), the “Log2Fold Change ERRFl1” value is reported as −2.76 and the “Log2Fold Change SNAl2” value is recorded as −1.79.
`CNC(=O)c1ccc(N2C(=S)N(c3ccc(C#N)c(C(F)(F)F)c3)C(=O)C2(C)C)cc1F` [Enzalutamide, enzalutamide, reference compound]: in series [1] (setting [5]), the area under the curve AUC(0-t) stood at 388 µg·h/mL, the Cmax is 21100 ng/mL and the Tmax is 9 h. Further, in series [3] (LNCaP, 7.5 μM), the “Log2Fold Change CDC6” value is −1.20, the “Log2Fold Change ERRFl1” value is given as −4.51 and the “Log2Fold Change SNAl2” value is −3.97.
